Results published in patent EP1247803A2, “Indolinone compounds suitable for modulation of protein kinases” (Sugen, Inc., priority 1996, dated 1998).

Key:
FLK-1 receptor = molecular target: T1, FLK-1 receptor (Mus musculus, UniProt P35918); assay: FLK-1 ELISA (kinase activity of the FLK-1 receptor in FLK-1/NIH3T3 cells, VEGF stimulated); type: cell-based
T1 construct: expressed in transfected cells; host or cells: NIH3T3 C7#3
Protocol: An enzyme linked immunosorbent assay (ELISA) was conducted to measure the catalytic activity of the FLK-1 receptor and more specifically, the inhibition or activation of indolinone compounds on the catalytic activity of the FLK-1 receptor. Specifically, the following assay was conducted to measure catalytic activity of the FLK-1 receptor in FLK-1/NIH3T3 cells.
The materials and protocol for the FLK-1 ELISA assay are as described in International Patent Publication No. WO 96/40116, published December 19, 1996 by Tang et al.
Selected compounds were tested in the FLK-1 ELISA assay.
An ELISA assay was conducted to measure the kinase activity of the FLK-1 receptor and more specifically, the inhibition or activation of protein tyrosine kinase activity on the FLK-1 receptor. Specifically, the following assay was conducted to measure kinase activity of the FLK-1 receptor in FLK-1/NIH3T3 cells.
Materials. The following reagents and supplies were used: • a. […] Cappel goat anti-rabbit IgG (catalog no. 55641); • c. PBS (Gibco Catalog No. 450-1300EB); • d. TBSW Buffer (50 mM Tris (pH 7.2), 150 mM NaCl and 0.1% Tween-20); • e. Ethanolamine stock (10% ethanolamine (pH 7.0), stored at 4°C); • f. HNTG buffer (20mM HEPES buffer (pH 7.5), 150mM NaCl, 0.2% Triton X-100, and 10% glycerol); • g. EDTA (0.5 M (pH 7.0) as a 100X stock); • h. Sodium ortho vanadate (0.5 M as a 100X stock); • i. Sodium pyro phosphate (0.2M as a 100X stock); • j. NUNC 96 well V bottom polypropylene plates (Applied Scientific Catalog No. AS-72092); • k. NIH3T3 C7#3 Cells (FLK-1 expressing cells); • l. DMEM with 1X high glucose L Glutamine (catalog No. 11965-050); • m. FBS, Gibco (catalog no. 16000-028); • n. L-glutamine, Gibco (catalog no. 25030-016); • o. VEGF, PeproTech, Inc. (catalog no. 100-20)(kept as 1 µg/100 µl stock in Milli-Q dH2O and stored at -20°C; • p. Affinity purified anti-FLK-1 antiserum which can be obtained or purified as follows: • 1. Prepare a Tresyl-Activated Agarose/Flk-1-D column by incubating 10 ml of Tresyl-Activated Agarose with 20 mg of purified GST-Flk-1-D fusion protein in 100mM sodium bicarbonate (pH 9.6) buffer overnight at 4 °C. • 2. Wash the column once with PBS. • 3. Block the excess sites on the column with 2 M glycine for 2 hours at 4°C. • 4. Wash the column with PBS. • 5. Incubate the column with Rabbit anti-Flk-1D production bleed for 2 hours at 4 °C. • 6. Wash the column with PBS. • 7. Elute antiserum with 100 mM Citric Acid, pH3.0 and neutralize the eluate immediately with 2 M Tris, pH 9.0. • 8. Dialyize the eluate against PBS overnight at 4 °C with 3 changes of buffer (sample to buffer ratio is 1:100). • 9. Adjust the dialyized antiserum to 5% glycerol and store at -80 °C in small aliquotes. • q.
Protocol. The following protocol was used for conducting the assay: • 1. Coat Corning 96-well elisa plates with 1.0µg per well Cappel Anti-rabbit IgG antibody in 0.1M Na2CO3 pH 9.6. Bring final volume to 150 µl per well. Coat plates overnight at 4°C. Plates can be kept up to two weeks when stored at 4°C. • 2. Grow cells in Growth media(DMEM, supplemental with 2.0mM L-Glutamine, 10% FBS) in suitable culture dishes until confluent at 37°C, 5% CO2. • 3. Harvest cells by trypsinization and seed in Corning 25850 polystyrene 96-well roundbottom cell plates, 25.000 cells/well in 200µl of growth media. • 4. Grow cells at least one day at 37°C, 5% CO2. • 5. Wash cells with D-PBS 1X. • 6. Add 200µl/well of starvation media (DMEM, 2.0mM 1-Glutamine, 0.1% FBS). Incubate overnight at 37°C, 5% CO2. • 7. Dilute Compounds/Extracts 1:20 in polypropylene 96 well plates using starvation media. Dilute dimethylsulfoxide 1:20 for use in control wells. • 8. Remove starvation media from 96 well cell culture plates and add 162 µl of fresh starvation media to each well. • 9. Add 18µl of 1:20 diluted Compound/Extract dilution (from step 7) to each well plus the 1:20 dimethylsulfoxide dilution to the control wells (+/- VEGF), for a final dilution of 1:200 after cell stimulation. […]

MET = MET biochemical kinase assay; parameters: species or system human; concentration or dose not given beside the values
Description: A met biochemical kinase assay may be performed for met generally as described above for other kinases by substituting that or the other kinases. In particular, ELISA plates are coated with goat anti-rabbit Fc antibodies, which are used to capture commercially available (from Santa Cruz Biotechnology) rabbit polyclonal antibodies to the cytoplasmic domain of human MET. […] The chimeric receptors, or MET, from these lysates are captured on the antibody coated plates. After washing away extraneous proteins, test compounds are added and an in vitro kinase assay is performed by addition of an appropriate kinase buffer (containing ATP, divalent metal ions, etc.). Incorporation of phosphate into the captured receptors is detected with an anti-phosphotyrosine antibody conjugate with horse radish peroxidase using TMB as a substrate for colorimetric detection.

T1 sequence (P35918 20-1345): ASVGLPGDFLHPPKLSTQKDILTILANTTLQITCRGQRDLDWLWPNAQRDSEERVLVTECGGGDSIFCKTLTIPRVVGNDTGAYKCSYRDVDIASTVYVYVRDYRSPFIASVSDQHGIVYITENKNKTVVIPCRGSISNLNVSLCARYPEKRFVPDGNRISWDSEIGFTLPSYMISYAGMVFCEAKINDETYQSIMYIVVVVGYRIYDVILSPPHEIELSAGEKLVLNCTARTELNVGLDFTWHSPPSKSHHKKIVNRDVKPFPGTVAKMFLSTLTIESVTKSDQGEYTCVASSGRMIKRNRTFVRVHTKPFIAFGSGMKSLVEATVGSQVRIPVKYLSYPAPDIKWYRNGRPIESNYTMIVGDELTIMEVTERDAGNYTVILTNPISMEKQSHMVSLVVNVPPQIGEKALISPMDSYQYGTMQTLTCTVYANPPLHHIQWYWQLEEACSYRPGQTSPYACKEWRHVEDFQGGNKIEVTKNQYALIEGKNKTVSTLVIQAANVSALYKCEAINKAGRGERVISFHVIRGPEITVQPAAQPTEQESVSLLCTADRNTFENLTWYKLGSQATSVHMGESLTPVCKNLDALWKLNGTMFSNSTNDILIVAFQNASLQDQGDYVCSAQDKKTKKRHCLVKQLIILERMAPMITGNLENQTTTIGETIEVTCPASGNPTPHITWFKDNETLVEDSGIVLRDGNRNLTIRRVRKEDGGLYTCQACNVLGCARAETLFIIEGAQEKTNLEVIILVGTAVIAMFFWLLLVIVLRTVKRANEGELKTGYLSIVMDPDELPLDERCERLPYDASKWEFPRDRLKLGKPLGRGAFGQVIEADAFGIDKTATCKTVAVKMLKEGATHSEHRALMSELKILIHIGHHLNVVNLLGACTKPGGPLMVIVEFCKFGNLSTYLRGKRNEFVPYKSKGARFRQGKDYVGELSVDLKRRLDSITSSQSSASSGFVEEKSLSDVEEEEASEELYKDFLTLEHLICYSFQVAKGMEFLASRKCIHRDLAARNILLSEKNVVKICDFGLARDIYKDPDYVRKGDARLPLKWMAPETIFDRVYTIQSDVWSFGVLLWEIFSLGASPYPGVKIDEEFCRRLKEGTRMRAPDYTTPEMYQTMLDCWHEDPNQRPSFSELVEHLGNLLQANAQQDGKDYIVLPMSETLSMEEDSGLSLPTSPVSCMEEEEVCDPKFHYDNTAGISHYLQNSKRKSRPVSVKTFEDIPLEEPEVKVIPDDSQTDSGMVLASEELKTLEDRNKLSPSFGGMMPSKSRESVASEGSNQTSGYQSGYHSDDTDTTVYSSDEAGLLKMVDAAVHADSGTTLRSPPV

Row | Compound | Fik Kinase %Inhibition (FLK-1 receptor) | Met Kinase % Inhibition (MET)
1 | O=C1Nc2ccc(S(=O)(=O)Nc3ccc(C(F)(F)F)cc3)cc2C1=Cc1c[nH]c(=O)[nH]c1=O [10731/E08] | 10.5% | 59.0%
2 | Cc1cc2occ(C=C3C(=O)Nc4ccc(S(=O)(=O)Nc5ccc(C(F)(F)F)cc5)cc43)c(=O)c2cc1C [10731/E03] | -1.4% | 20.7%
3 | CC(C)(C)c1cc(C=C2C(=O)Nc3c(Br)cc(Br)cc32)cc(Cl)c1OCc1ccccc1 [10732/A10] | 10.2% | 20.3%
4 | O=C1Nc2ccc(CCCl)cc2C1=Cc1c[nH]c(=O)[nH]c1=O [10731/G08] | 18.2% | 19.5%
5 | CNS(=O)(=O)c1ccc2c(c1)C(=Cc1ccc(OC)c(C(C)(C)C)c1)C(=O)N2 [10732/D05] | 15.7% | 30.2%
